Three compounds from ChEMBL document CHEMBL5715954, “Silencing c-Myc translation as a therapeutic strategy through targeting PI3Kδ and CK1ε in hematological malignancies” (Blood, 2017) can be followed below.

Common to all, as to parameters: scale not given: the % may be the effect or the level left
For experiment [1], the target named is RAC-beta serine/threonine-protein kinase (Homo sapiens) (UniProt P31751). The experiment is described as follows: Inhibition of human AKT2 assessed as enzyme activity at 1 uM using KGSGSGRPRTSSFAEG as substrate preincubated for 20 mins followed by [gamma-33P]-ATP addition and measured after 120 mins by radiometric Hot-SpotSM Kinase assay relative to control.
Sequence of RAC-beta serine/threonine-protein kinase (Homo sapiens) (P31751 whole entry): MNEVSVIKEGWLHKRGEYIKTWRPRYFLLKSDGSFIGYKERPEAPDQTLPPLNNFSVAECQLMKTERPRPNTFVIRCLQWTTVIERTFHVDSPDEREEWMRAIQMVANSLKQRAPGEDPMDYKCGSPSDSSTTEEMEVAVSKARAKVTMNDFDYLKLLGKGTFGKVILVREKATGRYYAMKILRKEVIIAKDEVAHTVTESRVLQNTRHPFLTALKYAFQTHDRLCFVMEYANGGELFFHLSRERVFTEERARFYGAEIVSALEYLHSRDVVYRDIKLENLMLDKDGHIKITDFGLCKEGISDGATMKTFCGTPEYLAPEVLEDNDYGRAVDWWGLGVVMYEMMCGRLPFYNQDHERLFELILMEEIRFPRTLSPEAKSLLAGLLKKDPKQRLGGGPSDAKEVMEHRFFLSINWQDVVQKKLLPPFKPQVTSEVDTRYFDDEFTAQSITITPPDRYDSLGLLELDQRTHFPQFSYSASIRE

Experiment [2] deals with T1, Activin receptor type-1 (Homo sapiens) (UniProt Q04771).
T1 sequence (whole entry): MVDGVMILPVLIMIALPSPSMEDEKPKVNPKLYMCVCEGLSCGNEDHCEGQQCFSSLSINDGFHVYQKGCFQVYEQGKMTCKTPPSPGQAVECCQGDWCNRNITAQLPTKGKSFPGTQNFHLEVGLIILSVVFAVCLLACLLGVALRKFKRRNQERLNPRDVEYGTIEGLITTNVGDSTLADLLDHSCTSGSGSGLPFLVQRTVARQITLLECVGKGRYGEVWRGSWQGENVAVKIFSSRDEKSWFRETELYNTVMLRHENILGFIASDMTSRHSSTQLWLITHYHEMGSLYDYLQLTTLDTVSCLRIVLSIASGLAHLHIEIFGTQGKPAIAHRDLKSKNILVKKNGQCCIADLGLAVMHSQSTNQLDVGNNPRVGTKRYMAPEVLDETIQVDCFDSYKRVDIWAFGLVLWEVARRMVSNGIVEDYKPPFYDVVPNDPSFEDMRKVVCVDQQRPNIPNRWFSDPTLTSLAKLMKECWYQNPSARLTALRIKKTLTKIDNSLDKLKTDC
The experiment is described as follows: Inhibition of human ALK2 assessed as enzyme activity at 1 uM using casein as substrate preincubated for 20 mins followed by [gamma-33P]-ATP addition and measured after 120 mins by radiometric Hot-SpotSM Kinase assay relative to control.

The target of experiment [3] is T2, Aurora kinase A (Homo sapiens) (UniProt O14965).
T2 sequence (whole entry): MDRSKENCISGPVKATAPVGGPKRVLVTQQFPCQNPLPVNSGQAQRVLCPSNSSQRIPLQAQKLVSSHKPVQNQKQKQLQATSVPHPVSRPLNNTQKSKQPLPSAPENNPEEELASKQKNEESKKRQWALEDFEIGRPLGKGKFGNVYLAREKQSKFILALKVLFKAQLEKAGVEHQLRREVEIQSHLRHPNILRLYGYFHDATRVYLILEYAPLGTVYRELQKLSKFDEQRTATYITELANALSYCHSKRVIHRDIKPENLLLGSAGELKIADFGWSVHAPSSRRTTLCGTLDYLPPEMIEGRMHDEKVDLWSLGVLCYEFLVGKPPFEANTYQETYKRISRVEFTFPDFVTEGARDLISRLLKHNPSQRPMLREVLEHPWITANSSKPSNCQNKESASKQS
Description: Inhibition of human Aurora A assessed as enzyme activity at 1 uM using H-LRRASLG as substrate preincubated for 20 mins followed by [gamma-33P]-ATP addition and measured after 120 mins by radiometric Hot-SpotSM Kinase assay relative to control.

For experiment [4], the target named is Tyrosine-protein kinase BTK (Homo sapiens) (UniProt Q06187). The experiment is described as follows: Inhibition of human BTK assessed as enzyme activity at 1 uM using poly[Glu:Tyr] (4:1) as substrate preincubated for 20 mins followed by [gamma-33P]-ATP addition and measured after 120 mins by radiometric Hot-SpotSM Kinase assay relative to control.
Sequence of Tyrosine-protein kinase BTK (Homo sapiens) (Q06187 whole entry): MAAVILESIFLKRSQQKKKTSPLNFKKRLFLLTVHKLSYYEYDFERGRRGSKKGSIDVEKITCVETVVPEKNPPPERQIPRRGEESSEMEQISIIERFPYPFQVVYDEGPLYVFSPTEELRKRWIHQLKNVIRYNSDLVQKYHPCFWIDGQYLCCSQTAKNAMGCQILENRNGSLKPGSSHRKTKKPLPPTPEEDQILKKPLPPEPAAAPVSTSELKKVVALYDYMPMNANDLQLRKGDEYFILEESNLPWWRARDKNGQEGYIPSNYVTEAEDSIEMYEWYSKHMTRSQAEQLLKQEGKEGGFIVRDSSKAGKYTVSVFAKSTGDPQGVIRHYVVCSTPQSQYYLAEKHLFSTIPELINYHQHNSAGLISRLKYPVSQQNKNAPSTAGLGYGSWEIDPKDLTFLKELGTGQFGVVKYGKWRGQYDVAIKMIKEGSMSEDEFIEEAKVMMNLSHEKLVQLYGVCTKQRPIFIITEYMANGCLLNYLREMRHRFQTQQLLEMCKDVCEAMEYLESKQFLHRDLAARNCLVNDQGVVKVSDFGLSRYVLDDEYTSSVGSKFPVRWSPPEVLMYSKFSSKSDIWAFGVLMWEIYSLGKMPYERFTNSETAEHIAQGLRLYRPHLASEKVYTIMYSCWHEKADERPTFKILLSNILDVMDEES
The target of experiment [5] is Tyrosine-protein kinase Fyn (Homo sapiens) (UniProt P06241). The experiment is described as follows: Inhibition of human FYN assessed as enzyme activity at 1 uM using poly[Glu:Tyr] (4:1) as substrate preincubated for 20 mins followed by [gamma-33P]-ATP addition and measured after 120 mins by radiometric Hot-SpotSM Kinase assay relative to control.
Sequence of Tyrosine-protein kinase Fyn (Homo sapiens) (P06241 2-537 limits assumed): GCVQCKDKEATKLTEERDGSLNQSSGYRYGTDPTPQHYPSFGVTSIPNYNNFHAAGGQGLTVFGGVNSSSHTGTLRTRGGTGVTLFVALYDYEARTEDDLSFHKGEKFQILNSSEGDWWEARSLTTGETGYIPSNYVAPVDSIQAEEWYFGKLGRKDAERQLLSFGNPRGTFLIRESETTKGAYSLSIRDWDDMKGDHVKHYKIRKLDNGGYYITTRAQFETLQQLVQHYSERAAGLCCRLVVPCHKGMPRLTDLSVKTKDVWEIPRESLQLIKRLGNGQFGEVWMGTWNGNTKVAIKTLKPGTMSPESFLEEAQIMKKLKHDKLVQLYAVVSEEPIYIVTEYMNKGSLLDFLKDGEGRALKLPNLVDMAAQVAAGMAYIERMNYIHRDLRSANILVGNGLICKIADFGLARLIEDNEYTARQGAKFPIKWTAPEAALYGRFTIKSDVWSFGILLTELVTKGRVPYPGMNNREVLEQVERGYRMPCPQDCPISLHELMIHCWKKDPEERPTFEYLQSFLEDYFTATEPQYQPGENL
Experiment [6] has as its target Homeodomain-interacting protein kinase 2 (Homo sapiens) (UniProt Q9H2X6). Description: Inhibition of human HIPK2 assessed as enzyme activity at 1 uM using myelin basic protein as substrate preincubated for 20 mins followed by [gamma-33P]-ATP addition and measured after 120 mins by radiometric Hot-SpotSM Kinase assay relative to control.
The target in experiment [7] is Serine/threonine-protein kinase PLK1 (Homo sapiens) (UniProt P53350). Description: Inhibition of human PLK1 assessed as enzyme activity at 1 uM using casein as substrate preincubated for 20 mins followed by [gamma-33P]-ATP addition and measured after 120 mins by radiometric Hot-SpotSM Kinase assay relative to control.
Sequence of Serine/threonine-protein kinase PLK1 (Homo sapiens) (P53350 whole entry): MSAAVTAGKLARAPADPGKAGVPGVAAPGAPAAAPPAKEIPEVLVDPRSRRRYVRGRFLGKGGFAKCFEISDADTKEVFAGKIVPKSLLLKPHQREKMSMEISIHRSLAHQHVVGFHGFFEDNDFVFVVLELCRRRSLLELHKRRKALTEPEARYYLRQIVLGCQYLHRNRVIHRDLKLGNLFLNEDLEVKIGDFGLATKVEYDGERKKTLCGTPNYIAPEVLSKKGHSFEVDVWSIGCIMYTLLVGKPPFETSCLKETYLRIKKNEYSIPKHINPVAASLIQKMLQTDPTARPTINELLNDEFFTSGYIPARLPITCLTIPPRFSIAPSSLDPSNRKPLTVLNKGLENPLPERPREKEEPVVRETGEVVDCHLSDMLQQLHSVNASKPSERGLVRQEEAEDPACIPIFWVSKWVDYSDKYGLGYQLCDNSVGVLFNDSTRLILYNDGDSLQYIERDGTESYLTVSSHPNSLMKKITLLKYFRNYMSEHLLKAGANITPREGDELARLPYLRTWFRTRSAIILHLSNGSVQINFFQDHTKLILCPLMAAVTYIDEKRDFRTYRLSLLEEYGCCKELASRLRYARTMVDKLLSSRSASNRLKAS
Experiment [8] has as its target Testis-specific serine/threonine-protein kinase 6 (Homo sapiens) (UniProt Q9BXA6). The experiment is described as follows: Inhibition of human SSTK assessed as enzyme activity at 1 uM using myelin basic protein as substrate preincubated for 20 mins followed by [gamma-33P]-ATP addition and measured after 120 mins by radiometric Hot-SpotSM Kinase assay relative to control.

Experiment [9] concerns the target Serine/threonine-protein kinase 38-like (Homo sapiens) (UniProt Q9Y2H1). The experiment is described as follows: Inhibition of human STK38L assessed as enzyme activity at 1 uM using KKRNRRLSVA as substrate preincubated for 20 mins followed by [gamma-33P]-ATP addition and measured after 120 mins by radiometric Hot-SpotSM Kinase assay relative to control.
For experiment [10], the target named is NT-3 growth factor receptor (Homo sapiens) (UniProt Q16288). Description: Inhibition of human TRKC assessed as enzyme activity at 1 uM using poly[Glu:Tyr] (4:1) as substrate preincubated for 20 mins followed by [gamma-33P]-ATP addition and measured after 120 mins by radiometric Hot-SpotSM Kinase assay relative to control.
Sequence of NT-3 growth factor receptor (Homo sapiens) (Q16288 32-839 limits assumed): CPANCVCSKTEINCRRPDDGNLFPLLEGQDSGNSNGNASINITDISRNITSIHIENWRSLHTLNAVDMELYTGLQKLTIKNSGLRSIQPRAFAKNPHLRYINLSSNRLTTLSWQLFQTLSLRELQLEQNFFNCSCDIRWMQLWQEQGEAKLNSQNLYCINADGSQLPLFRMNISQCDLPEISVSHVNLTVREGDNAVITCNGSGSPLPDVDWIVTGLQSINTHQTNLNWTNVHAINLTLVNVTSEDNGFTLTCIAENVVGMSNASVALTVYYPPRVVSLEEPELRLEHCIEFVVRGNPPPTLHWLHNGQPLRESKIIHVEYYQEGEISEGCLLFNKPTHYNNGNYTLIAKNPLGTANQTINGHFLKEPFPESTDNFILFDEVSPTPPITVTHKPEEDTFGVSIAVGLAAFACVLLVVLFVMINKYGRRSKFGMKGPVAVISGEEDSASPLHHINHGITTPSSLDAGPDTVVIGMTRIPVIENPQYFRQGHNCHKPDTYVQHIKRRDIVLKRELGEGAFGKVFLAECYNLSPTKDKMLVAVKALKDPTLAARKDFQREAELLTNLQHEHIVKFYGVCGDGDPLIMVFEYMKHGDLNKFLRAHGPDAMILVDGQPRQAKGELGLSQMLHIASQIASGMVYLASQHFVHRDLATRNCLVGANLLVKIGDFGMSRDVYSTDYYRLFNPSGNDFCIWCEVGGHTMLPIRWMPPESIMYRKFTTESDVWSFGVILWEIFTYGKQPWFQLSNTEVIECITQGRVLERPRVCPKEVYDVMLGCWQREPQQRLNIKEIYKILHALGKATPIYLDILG

Each structure is given as a SMILES string.

Sequence of Serine/threonine-protein kinase 38-like (Homo sapiens) (Q9Y2H1 2-464 limits assumed): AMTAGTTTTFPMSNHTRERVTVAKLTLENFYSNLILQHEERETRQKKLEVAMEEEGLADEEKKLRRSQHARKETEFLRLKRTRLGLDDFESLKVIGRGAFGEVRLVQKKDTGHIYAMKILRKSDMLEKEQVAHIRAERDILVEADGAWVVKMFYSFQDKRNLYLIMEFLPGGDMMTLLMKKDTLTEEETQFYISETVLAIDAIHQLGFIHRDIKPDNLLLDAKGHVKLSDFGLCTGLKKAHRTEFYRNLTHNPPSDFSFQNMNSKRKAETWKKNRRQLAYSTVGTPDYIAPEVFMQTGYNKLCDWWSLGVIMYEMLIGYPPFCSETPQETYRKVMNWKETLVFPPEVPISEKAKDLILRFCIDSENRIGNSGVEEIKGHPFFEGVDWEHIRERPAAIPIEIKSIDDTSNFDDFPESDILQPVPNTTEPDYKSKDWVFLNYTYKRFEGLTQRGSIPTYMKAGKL
Sequence of Homeodomain-interacting protein kinase 2 (Homo sapiens) (Q9H2X6 whole entry, looked up): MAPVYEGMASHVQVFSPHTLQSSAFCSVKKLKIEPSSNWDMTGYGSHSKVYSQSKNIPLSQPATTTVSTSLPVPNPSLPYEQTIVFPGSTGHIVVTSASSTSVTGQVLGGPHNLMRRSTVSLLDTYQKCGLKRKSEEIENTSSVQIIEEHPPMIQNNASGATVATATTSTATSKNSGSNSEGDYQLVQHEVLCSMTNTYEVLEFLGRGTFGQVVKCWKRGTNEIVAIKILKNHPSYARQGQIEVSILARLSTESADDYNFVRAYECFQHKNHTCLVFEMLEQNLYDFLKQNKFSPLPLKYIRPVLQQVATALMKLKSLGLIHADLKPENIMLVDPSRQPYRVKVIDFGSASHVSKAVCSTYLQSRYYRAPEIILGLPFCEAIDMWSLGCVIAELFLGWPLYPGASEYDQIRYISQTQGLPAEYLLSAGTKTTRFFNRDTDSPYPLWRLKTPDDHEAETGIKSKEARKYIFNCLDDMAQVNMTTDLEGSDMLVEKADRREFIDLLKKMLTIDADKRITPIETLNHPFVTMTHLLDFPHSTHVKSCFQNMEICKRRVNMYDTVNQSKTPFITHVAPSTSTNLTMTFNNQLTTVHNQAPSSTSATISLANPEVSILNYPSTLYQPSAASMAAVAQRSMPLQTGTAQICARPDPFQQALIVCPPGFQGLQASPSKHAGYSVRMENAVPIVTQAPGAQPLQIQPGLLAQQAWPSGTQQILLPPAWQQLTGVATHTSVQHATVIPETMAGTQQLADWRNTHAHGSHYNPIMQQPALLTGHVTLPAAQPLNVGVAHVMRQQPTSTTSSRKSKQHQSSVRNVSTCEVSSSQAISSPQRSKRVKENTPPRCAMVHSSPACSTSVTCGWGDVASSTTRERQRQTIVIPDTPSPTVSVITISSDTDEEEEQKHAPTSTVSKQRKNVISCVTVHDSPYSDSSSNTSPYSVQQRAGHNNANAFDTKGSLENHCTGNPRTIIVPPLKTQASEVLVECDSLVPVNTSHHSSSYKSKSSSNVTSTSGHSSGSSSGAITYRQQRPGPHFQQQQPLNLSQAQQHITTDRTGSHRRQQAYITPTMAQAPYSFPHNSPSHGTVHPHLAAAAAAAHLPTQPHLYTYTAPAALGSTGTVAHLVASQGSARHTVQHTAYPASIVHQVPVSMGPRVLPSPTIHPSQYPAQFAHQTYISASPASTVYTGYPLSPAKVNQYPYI
Sequence of Testis-specific serine/threonine-protein kinase 6 (Homo sapiens) (Q9BXA6 whole entry): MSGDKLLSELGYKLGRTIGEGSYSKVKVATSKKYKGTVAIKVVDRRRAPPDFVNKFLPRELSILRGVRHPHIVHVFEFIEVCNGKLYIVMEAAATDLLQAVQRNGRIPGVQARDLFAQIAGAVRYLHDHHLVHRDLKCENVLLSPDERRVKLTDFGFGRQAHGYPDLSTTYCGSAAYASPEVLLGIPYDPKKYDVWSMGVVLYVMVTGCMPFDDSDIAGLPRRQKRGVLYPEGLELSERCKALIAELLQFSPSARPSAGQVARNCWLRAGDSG

For the compound `C[C@H](Nc1ncnc2nc[nH]c12)c1cc2cccc(Cl)c2c(=O)n1-c1ccccc1`, the Activity in experiment [1] came out at 92%; in [2], 93.6%; in experiment [3], 96.8%; in experiment [4], 98.7%; in [5], 103%; in experiment [6], 100%. The Activity in experiment [7] was found to be 94%; in experiment [8], 103%; in experiment [9], 92.7%; in experiment [10], 91%.
For `CC[C@H](Nc1ncnc2[nH]cnc12)c1nc2cccc(F)c2c(=O)n1-c1ccccc1`, the Activity in [1] stood at 91.6%; in experiment [2], 94%; in experiment [3], 104%; in experiment [4] it was 97.3%; in experiment [5], 100%; in experiment [6], 100%. Moreover, the Activity in experiment [7] stood at 95.4%; in experiment [8], 105%; in [9], 95.1%; in [10] it was 89.6%.
For `CC(C)Oc1ccc(-c2nn([C@@H](C)c3oc4ccc(F)cc4c(=O)c3-c3cccc(F)c3)c3ncnc(N)c23)cc1F` [UMBRALISIB], the Activity in experiment [1] was found to be 90.8%; in [2], 95.5%; in experiment [3], 99.5%; in experiment [4] it was 96.8%; in experiment [5] it was 99.7%; in [6] it was 107%. Besides, the Activity in [7] came to 98.4%; in experiment [8] it was 102%; in experiment [9] it was 100%; in [10], 88.7%.
